37 compounds from patent US20070021434A1, “NON-NUCLEOSIDE ANTI-HEPACIVIRUS AGENTS AND USES THEREOF” (Migenix Inc., priority 2005, published 2007) can be followed below.

In this assay the target is HCV RdRp (NS5B) (UniProt P26663). In kind it is biochemical, hepatitis C virus.
Sequence of HCV RdRp (NS5B) (P26663 whole entry, looked up): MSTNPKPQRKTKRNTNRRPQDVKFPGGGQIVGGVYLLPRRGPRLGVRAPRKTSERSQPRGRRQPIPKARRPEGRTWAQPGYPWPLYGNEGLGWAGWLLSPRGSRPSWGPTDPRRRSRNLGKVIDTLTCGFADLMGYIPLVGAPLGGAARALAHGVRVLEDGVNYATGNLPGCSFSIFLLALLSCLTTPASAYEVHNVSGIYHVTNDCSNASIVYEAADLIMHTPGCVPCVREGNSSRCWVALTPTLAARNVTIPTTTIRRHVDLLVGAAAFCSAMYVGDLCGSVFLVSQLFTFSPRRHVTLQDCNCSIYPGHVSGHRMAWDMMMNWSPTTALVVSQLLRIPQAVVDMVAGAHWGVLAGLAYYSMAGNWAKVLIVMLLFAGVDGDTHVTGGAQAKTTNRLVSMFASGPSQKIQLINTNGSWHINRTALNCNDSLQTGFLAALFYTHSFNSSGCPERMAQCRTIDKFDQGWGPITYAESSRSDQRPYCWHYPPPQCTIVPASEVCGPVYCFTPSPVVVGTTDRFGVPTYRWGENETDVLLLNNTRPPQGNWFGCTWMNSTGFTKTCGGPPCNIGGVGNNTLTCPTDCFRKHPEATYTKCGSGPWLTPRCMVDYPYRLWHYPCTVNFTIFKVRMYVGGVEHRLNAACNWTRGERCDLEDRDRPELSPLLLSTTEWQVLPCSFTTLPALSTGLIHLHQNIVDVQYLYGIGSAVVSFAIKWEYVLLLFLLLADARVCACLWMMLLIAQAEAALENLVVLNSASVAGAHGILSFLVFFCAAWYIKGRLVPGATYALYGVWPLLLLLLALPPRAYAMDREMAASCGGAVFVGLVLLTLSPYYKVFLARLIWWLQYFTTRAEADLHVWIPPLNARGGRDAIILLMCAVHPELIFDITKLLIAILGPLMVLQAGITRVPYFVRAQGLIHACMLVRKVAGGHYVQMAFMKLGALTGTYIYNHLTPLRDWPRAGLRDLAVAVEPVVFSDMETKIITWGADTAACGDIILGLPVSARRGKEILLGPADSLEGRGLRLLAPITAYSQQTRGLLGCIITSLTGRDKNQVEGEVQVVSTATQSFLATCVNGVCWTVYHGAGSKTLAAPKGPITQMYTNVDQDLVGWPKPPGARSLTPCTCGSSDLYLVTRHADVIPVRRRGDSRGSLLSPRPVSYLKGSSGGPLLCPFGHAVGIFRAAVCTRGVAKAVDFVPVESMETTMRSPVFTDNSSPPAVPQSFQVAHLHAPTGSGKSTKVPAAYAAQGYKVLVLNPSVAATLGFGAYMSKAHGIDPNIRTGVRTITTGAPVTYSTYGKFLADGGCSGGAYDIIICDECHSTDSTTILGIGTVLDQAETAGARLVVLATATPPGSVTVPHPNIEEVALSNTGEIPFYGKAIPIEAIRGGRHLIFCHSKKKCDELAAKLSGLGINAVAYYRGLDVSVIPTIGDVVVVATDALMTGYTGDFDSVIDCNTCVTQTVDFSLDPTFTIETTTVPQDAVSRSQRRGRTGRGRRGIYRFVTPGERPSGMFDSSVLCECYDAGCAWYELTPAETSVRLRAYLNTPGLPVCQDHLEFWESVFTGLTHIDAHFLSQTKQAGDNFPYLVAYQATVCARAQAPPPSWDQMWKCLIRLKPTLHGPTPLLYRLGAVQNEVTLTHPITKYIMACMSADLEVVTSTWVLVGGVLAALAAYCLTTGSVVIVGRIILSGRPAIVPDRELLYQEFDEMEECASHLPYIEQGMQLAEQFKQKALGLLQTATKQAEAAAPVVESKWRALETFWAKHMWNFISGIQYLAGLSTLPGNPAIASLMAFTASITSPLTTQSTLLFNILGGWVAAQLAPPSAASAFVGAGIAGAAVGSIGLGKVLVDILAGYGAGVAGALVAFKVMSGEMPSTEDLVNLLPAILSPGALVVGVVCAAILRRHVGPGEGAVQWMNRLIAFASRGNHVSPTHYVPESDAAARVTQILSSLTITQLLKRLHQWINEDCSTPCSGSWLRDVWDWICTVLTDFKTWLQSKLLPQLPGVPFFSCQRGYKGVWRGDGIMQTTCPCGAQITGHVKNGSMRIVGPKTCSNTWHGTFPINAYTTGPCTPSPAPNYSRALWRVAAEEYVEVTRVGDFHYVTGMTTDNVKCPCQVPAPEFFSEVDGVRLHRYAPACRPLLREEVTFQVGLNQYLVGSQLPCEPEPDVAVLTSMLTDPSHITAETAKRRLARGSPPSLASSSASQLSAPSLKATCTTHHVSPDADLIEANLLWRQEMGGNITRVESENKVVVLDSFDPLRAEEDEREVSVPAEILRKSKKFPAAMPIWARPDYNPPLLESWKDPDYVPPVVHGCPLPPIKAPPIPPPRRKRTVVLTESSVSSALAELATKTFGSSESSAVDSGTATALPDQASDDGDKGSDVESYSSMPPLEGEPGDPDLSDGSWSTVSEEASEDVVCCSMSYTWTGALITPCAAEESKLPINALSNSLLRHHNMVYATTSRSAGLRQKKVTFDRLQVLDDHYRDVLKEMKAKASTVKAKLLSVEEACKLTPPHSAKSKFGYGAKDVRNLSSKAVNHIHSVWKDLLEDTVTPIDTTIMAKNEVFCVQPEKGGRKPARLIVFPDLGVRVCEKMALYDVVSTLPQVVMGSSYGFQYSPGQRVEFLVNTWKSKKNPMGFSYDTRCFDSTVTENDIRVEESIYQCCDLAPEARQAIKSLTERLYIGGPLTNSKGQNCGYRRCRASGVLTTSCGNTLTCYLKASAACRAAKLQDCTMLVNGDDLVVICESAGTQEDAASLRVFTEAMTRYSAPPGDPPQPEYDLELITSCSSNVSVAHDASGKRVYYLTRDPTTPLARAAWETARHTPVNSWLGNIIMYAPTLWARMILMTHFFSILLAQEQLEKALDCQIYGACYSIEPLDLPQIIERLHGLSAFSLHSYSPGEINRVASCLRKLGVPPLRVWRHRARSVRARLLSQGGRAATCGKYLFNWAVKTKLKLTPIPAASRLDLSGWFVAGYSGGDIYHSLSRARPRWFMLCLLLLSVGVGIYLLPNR
With `Cc1cccc(NC(=O)[C@H](CCCCN)NC(=O)OCC2c3ccccc3-c3ccccc32)c1` [Compound 47, (S)-(5-AMINO-1-M-TOLYLCARBAMOYL-PENTYL)-CARBAMIC ACID 9H-FLUOREN-9-YLMETHYL ESTER], the IC50 was greater than 50 µM.

Compound `Cc1ccc(NC(=O)C(Cc2cnc[nH]2)NC(=O)OCC2c3ccccc3-c3ccccc32)cc1` [Compound 384, (R)-[2-(3H-IMIDAZOL-4-YL)-1-P-TOLYLCARBAMOYL-ETHYL]-CARBAMIC ACID 9H-FLUOREN-9-YLMETHYL ESTER] registered an IC50 greater than 50 µM.

In turn, `Cc1ccc(NC(=O)CC2CNCCN2C(=O)OCC2c3ccccc3-c3ccccc32)cc1` (stereo not shown) [Compound 197, 2-(P-TOLYLCARBAMOYL-METHYL)-PIPERAZINE-1-CARBOXYLIC ACID 9H-FLUOREN-9-YLMETHYL ESTER] came in with an IC50 greater than 50 µM.

In the case of `Cc1ccc(NC(=O)[C@H](CCCCN)NC(=O)COc2ccc(Cl)cc2)cc1` [Compound 331, (S)-6-AMINO-2-[2-(4-CHLORO-PHENOXY)-ACETYLAMINO]-HEXANOIC ACID P-TOLYLAMIDE], the IC50 is greater than 50 µM.

`Cc1ccc(NC(=O)C(CCNC(=O)CCN)NC(=O)OCC2c3ccccc3-c3ccccc32)cc1` [Compound 179, (S)-[3-(3-AMINO-PROPIONYLAMINO)-1-P-TOLYLCARBAMOYL-PROPYL]-CARBAMIC ACID 9H-FLUOREN-9-YLMETHYL ESTER]: the IC50 was in the range of 10 to 50 µM.

Consider `NCCCC[C@H](NC(=O)Nc1ccc(OCc2ccccc2)cc1)C(=O)Nc1cccc2cc[nH]c12` [Compound 307, (S)-6-AMINO-2-[3-(4-BENZYLOXY-PHENYL)-UREIDO]-HEXANOIC ACID (1H-INDOL-7-YL)-AMIDE], for which the IC50 lay within 10 to 50 µM.

`CC(C)(NC(=O)OCC1c2ccccc2-c2ccccc21)C(=O)Nc1ccc(C=CC(=O)O)cc1` [Compound 39, 3-{4-[2-((9H-FLUOREN-9-YLMETHOXYCARBONYL)AMINO)-2-METHYL-PROPIONYLAMINO]-PHENYL}-ACRYLIC ACID]: the IC50 is greater than 50 µM.

Regarding `Cc1ccc(NC(=O)C(CCCCN)NC(=O)CNCc2cccc(C(F)(F)F)c2)cc1` [Compound 351, (S)-6-AMINO-2-[2-(3-TRIFLUOROMETHYL-BENZYLAMINO)-ACETYLAMINO]-HEXANOIC ACID P-TOLYLAMIDE], the IC50 is greater than 50 µM.

With `NCCCC[C@H](NC(=O)Nc1ccc(OCc2ccccc2)cc1)C(=O)NC1CC1` [Compound 266, (S)-6-AMINO-2-[3-(4-BENZYLOXY-PHENYL)-UREIDO]-HEXANOIC ACID CYCLOPROPYLAMIDE], the IC50 was greater than 50 µM.

`Cc1ccc(NC(=O)C(CCCCN)NC(=O)Nc2ccc(CCc3ccccc3)cc2)cc1` [Compound 243, (S)-6-AMINO-2-[3-(4-PHENETHYL-PHENYL)-UREIDO]-HEXANOIC ACID P-TOLYLAMIDE] displayed an IC50 greater than 50 µM.

Compound `Cc1ccc(NC(=O)C2CCCCN2C(=O)OCC2c3ccccc3-c3ccccc32)cc1` [Compound 123, (R)-2-P-TOLYLCARBAMOYL-PIPERIDINE-1-CARBOXYLIC ACID 9H-FLUOREN-9-YLMETHYL ESTER] came in with a 50% inhibitory concentration (IC50) greater than 50 µM.

On to `CC(C)(C)OC(=O)NCCCC[C@H](NC(=O)OCC1c2ccccc2-c2ccccc21)C(=O)NCCc1c[nH]c2ccccc12` [Compound 56, (S)-{5-((9H-FLUOREN-9-YLMETHOXYCARBONYL)AMINO)-5-[2-(1H-INDOL-3-YL)-ETHYLCARBAMOYL]-PENTYL}-CARBAMIC ACID TERT-BUTYL ESTER], for which the IC50 is greater than 50 µM.

As to `Cc1ccc(NC(=O)[C@H](CCCCN)NS(=O)(=O)c2cc(Cl)sc2Cl)cc1` [Compound 395, (S)-6-AMINO-2-(2,5-DICHLORO-THIOPHENE-3-SULFONYLAMINO)-HEXANOIC ACID P-TOLYLAMIDE], the IC50 was greater than 50 µM.

For the compound `Cc1ccc(NC(=O)[C@H](CCCCN)NC(=O)Nc2ccc(F)cc2)cc1` [Compound 43, (S)-6-AMINO-2-[3-(4-FLUORO-PHENYL)-UREIDO]-HEXANOIC ACID P-TOLYLAMIDE], the IC50 was greater than 50 µM.

On to `NCCCC[C@H](NC(=O)OCC1c2ccccc2-c2ccccc21)C(=O)Nc1cc(-c2ccccc2)n[nH]1` [Compound 267, (S)-[5-AMINO-1-(5-PHENYL-2H-PYRAZOL-3-YLCARBAMOYL)-PENTYL]-CARBAMIC ACID 9H-FLUOREN-9-YLMETHYL ESTER], for which the IC50 was in the range of 10 to 50 µM.

`CNc1ccc(NC(=O)[C@H](CCCCN)NC(=O)OCC2c3ccccc3-c3ccccc32)cc1` [Compound 209, (S)-[5-AMINO-1-(4-METHYLAMINO-PHENYLCARBAMOYL)-PENTYL]-CARBAMIC ACID 9H-FLUOREN-9-YLMETHYL ESTER] registered an IC50 of 10 to 50 µM.

As to `Cc1ccc(NC(=O)C(CCCCN)NC(=O)COc2cccc(C(F)(F)F)c2)cc1` [Compound 332, (S)-6-AMINO-2-[2-(3-TRIFLUOROMETHYL-PHENOXY)-ACETYLAMINO]-HEXANOIC ACID P-TOLYLAMIDE], the IC50 was greater than 50 µM.

As for `Cc1ccc(NC(=O)C(CCC(N)=O)NC(=O)OCC2c3ccccc3-c3ccccc32)cc1` [Compound 382, (R)-(3-CARBAMOYL-1-P-TOLYLCARBAMOYL-PROPYL)-CARBAMIC ACID 9H-FLUOREN-9-YLMETHYL ESTER], the IC50 was greater than 50 µM.

Consider `Cc1ccc(NC(=O)C(CCCCN)NC(=O)NC(C)c2cccc3ccccc23)cc1` [Compound 97, (S,S)-6-AMINO-2-[3-(1-NAPHTHALEN-1-YL-ETHYL)-UREIDO]-HEXANOIC ACID P-TOLYLAMIDE], for which the IC50 was greater than 50 µM.

`Cc1cc2cc(NC(=O)C(Cc3ccc(CN)cc3)NC(=O)Nc3ccc(-c4ccccc4)cc3)ccc2[nH]1` [Compound 234, (S)-3-(4-AMINOMETHYL-PHENYL)-2-(3-BIPHENYL-4-YL-UREIDO)—NR-(2-METHYL-1H-INDOL-5-YL)-PROPIONAMIDE]: the IC50 lay within 10 to 50 µM.

The compound `NCCCC[C@@H](NC(=O)NCc1ccc(Cl)cc1)C(=O)Nc1ccc(C2CCCCC2)cc1` [Compound 164, (R)-6-AMINO-2-[3-(4-CHLORO-BENZYL)-UREIDO]-HEXANOIC ACID (4-CYCLOHEXYL-PHENYL)-AMIDE] returned an IC50 of less than 10 µM.

`Cc1ccc(NC(=O)[C@H](CCCCN)NC(=O)Nc2ccc(OCc3cccc(F)c3F)cc2)cc1` [Compound 284, (S)-6-AMINO-2-{3-[4-(2,3-DIFLUORO-BENZYLOXY)-PHENYL]-UREIDO}-HEXANOIC ACID P-TOLYLAMIDE] gave an IC50 of 10 to 50 µM.

The compound `Cc1ccc(NC(=O)C2CCCN2C(=O)OCC2c3ccccc3-c3ccccc32)cc1` [Compound 86, (R)-2-P-TOLYLCARBAMOYL-PYRROLIDINE-1-CARBOXYLIC ACID 9H-FLUOREN-9-YLMETHYL ESTER] displayed an IC50 greater than 50 µM.

The compound `Cc1ccc(NC(=O)[C@H](CCCCN)NC(=O)CNc2cccc(F)c2)cc1` [Compound 360, (S)-6-AMINO-2-[2-(3-FLUORO-PHENYLAMINO)-ACETYLAMINO]-HEXANOIC ACID P-TOLYLAMIDE] showed a half-inhibitory concentration (IC50) of 10 to 50 µM.

Turning to `Cc1ccc(NC(=O)[C@H](CCCCN)NC(=O)Nc2ccc(OCc3cc(F)ccc3F)cc2)cc1` [Compound 286, (S)-6-AMINO-2-{3-[4-(2,5-DIFLUORO-BENZYLOXY)-PHENYL]-UREIDO}-HEXANOIC ACID P-TOLYLAMIDE], the IC50 was less than 10 µM.

Turning to `O=C(Nc1ccc(C2CCCCC2)cc1)C1CNCCN1C(=O)OCC1c2ccccc2-c2ccccc21` (racemic) [Compound 156, (+/−)-2-(4-CYCLOHEXYL-PHENYLCARBAMOYL)-PIPERAZINE-1-CARBOXYLIC ACID 9H-FLUOREN-9-YLMETHYL ESTER], the IC50 was greater than 50 µM.

In the case of `Cc1ccc(NC(=O)[C@H](CCCCN)NC(=O)Nc2ccc(OCc3ccc(F)c(F)c3)cc2)cc1` [Compound 288, (S)-6-AMINO-2-{3-[4-(3,4-DIFLUORO-BENZYLOXY)-PHENYL]-UREIDO}-HEXANOIC ACID P-TOLYLAMIDE], the IC50 was 10 to 50 µM.

As for `NCCC(=O)Nc1ccccc1NC(=O)CNC(=O)OCC1c2ccccc2-c2ccccc21` [Compound 312, {[2-(3-AMINO-PROPIONYLAMINO)-PHENYLCARBAMOYL]-METHYL}-CARBAMIC ACID 9H-FLUOREN-9-YLMETHYL ESTER], the IC50 is greater than 50 µM.

Take `Cc1ccc(NC(=O)C(CCN)NC(=O)OCC2c3ccccc3-c3ccccc32)cc1` [Compound 108, (S)-(3-AMINO-1-P-TOLYLCARBAMOYL-PROPYL)-CARBAMIC ACID 9H-FLUOREN-9-YLMETHYL ESTER]: the IC50 is greater than 50 µM.

`Cc1ccc(NC(=O)C(CCCNC(=O)CN)NC(=O)OCC2c3ccccc3-c3ccccc32)cc1` [Compound 177, (S)-[4-(2-AMINO-ACETYLAMINO)-1-P-TOLYLCARBAMOYL-BUTYL]-CARBAMIC ACID 9H-FLUOREN-9-YLMETHYL ESTER] came in with an IC50 of less than 10 µM.

`Cc1ccc(NC(=O)C(CCCN)NC(=O)OCC2c3ccccc3-c3ccccc32)cc1` [Compound 102, (R)-(4-AMINO-1-P-TOLYLCARBAMOYL-BUTYL)-CARBAMIC ACID 9H-FLUOREN-9-YLMETHYL ESTER] showed an IC50 greater than 50 µM.

`Cc1ccc(NC(=O)[C@H](CCCCN)NC(=O)OCC2c3ccccc3-c3ccccc32)cc1C` [Compound 216, (S)-[5-AMINO-1-(3,4-DIMETHYL-PHENYLCARBAMOYL)-PENTYL]-CARBAMIC ACID 9H-FLUOREN-9-YLMETHYL ESTER] gave an IC50 of 10 to 50 µM.

As for `Cc1ccc(NC(=O)C(CCC(=O)O)NC(=O)OCC2c3ccccc3-c3ccccc32)cc1` [Compound 373, (R)-4-(9H-FLUOREN-9-YLMETHOXYCARBONYLAMINO)-4-P-TOLYLCARBAMOYL-BUTYRIC ACID], the IC50 is greater than 50 µM.

The compound `NCCC[C@@H](NC(=O)OCC1c2ccccc2-c2ccccc21)C(=O)Nc1ccc(C2CCCCC2)cc1` [Compound 198, (R)-[4-AMINO-1-(4-CYCLOHEXYL-PHENYLCARBAMOYL)-BUTYL]-CARBAMIC ACID 9H-FLUOREN-9-YLMETHYL ESTER] returned an IC50 of less than 10 µM.

Compound `NCCCC[C@H](NC(=O)OCC1c2ccccc2-c2ccccc21)C(=O)Nc1ccc2c(c1)CCC2` [Compound 81, (S)-[5-AMINO-1-(INDAN-5-YLCARBAMOYL)-PENTYL]-CARBAMIC ACID 9H-FLUOREN-9-YLMETHYL ESTER] yielded an IC50 of 10 to 50 µM.

Compound `NCCCC[C@H](NC(=O)NCc1ccccc1)C(=O)Nc1ccc(CN(C(=O)c2ccco2)C2CCCCC2)cc1` [Compound 153, (S)-FURAN-2-CARBOXYLIC ACID {4-[6-AMINO-2-(3-BENZYL-UREIDO)-HEXANOYLAMINO]-BENZYL}-CYCLOHEXYL-AMIDE] returned an IC50 greater than 50 µM.

Turning to `Cc1ccc(NC(=O)NC(CCCCN)C(=O)Nc2ccc(C)cc2)cc1` [Compound 135, (S)-6-AMINO-2-(3-P-TOLYL-UREIDO)-HEXANOIC ACID P-TOLYLAMIDE], the 50% inhibitory concentration (IC50) is greater than 50 µM.
